Tests used:
Format in all cases: physicochemical
[1] = Light transmission at 580 nm (% T); conditions: 580 nm
Method: The translucency of a composition may be measured by placing a sample of standardised thickness in the light path of a spectrophotometer and measuring transmittance, as a percentage of light transmitted in the absence of the gel.
This test was carried out using a dual-beam spectrophotometer. The sample of composition was poured hot into a 4.5 ml cuvette made of poly(methyl-methacrylate) (PMMA) and allowed to cool to an ambient temperature of 20-25° C. Such a cuvette gives a 1 cm thickness of composition. […] A transmittence measured at any temperature in the range from 20-25° C. is usually adequately accurate, but measurement is made at 22° C. if more precision is required.

[2] = DSC of gels: fibre dissolution temperature (FDT) and solubility of structurant; conditions: for Solubility of structurant at 25° C.: from DSC of gel, relative to benchmark REF 2; for FDT: gel heated at 5 K/min in DSC, peak temperature of the highest peak
Method: In this Example the Fibre dissolution temperature (FDT) is measured in the DSC process described later herein, by observing when the fibres dissolve whilst the temperature of sample rises. FDT is taken to be the peak temperature of the highest peak.
In REF2 and REF3, the acyl substituents at the other seven cellobiose sites are nonanoyl.
Samples of gel (about 20 mg) were sealed in stainless steel capsules for DSC. An empty stainless steel capsule was used as the physical reference. The samples were subjected to the following temperature programme:
The sample was heated to 100° C. and held at 100° C. for 1 minute, in order to obtain an isotropic solution. The sample was then cooled at 5 K/min to −20° C. The sample was held at −20° C. for 1 minute. The sample is now a gel on the bottom of the sample capsule prepared in a reproducible manner. The gel was then heated at 5 K/min to 100° C. Data was also obtained with empty stainless steel pans as both physical sample and reference. This blank data was later subtracted from the sample data to remove any curvature in the base line.

[3] = Gelling of water-immiscible cosmetic liquids in 96 well glass micro-titre plate; design: key: gel; g4: gel after overnight (18 hrs) storage at 4° C.; g22: gel after overnight (18 hrs) storage at 22° C.; sg: soft gel; sg22: soft gel after overnight (18 hrs) storage at 22° C.; solution; *: the test at 4° C. was not carried out; conditions: for gelling of ISA: 150° C. 2.5 hours, cooled to ambient
Summary of the method: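 Esterified cellobiose at about 5% or 10% was mixed with the cosmetic liquid in lidded glass wells and heated at 150 °C for 2.5 h, then cooled to ambient. Gelling was judged by visual inspection and micro-spatula probing after cooling, after 18 h at 18 °C, and after a further 18 h at 4 °C.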

[4] = Visual assessment score (clarity of gel in 1 cm cuvette); conditions: for Clarity Visual (assessment score): scale −12 to 8
From the text: A gel contained within a 1 cm thick cuvette was placed directly on to a sheet of white paper on which 21 sets of figures where printed in black. The size and thickness of the figures varied systematically and were numbered from −12 (the largest, thickest set) through 0 to 8 (the smallest thinnest set) The score given to each gel was the highest numbered set which could be read clearly through the gel, the higher the number, the higher the clarity.

[5] = Stability testing of gels: crystal growth visible by eye on storage at 37° C.
Method: Gels were made up using 10% structurant in a 60:40 mixture of Hydrogenated Polyisobutene (Panalene L14E):DC245. The gels, in sealed glass bottles, were left to stand for 18 hrs at room temperature, after which they were transferred to an oven thermostatically controlled to 37° C. Samples were checked periodically for signs of crystal growth visible by eye. REF1 is cellobiose octanonanoate.
Gels were made up and tested in accordance with the procedure in Example 6, as such or modified by employing a weight ratio of 9% of REF1 and 1% of an additional structurant as specified in Table 13 below.
The test procedure of Example 9 was repeated, but using ACB structurant REF2 alone as the structurant or to which a CHME structurant was added.

[6] = 9% REF2 and 1% of the specified ester in 60:40 hydrogenated polydecene:DC245
[7] = 5% cellobiose ester in Fluid AP
[8] = 5% cellobiose ester in Mineral oil
[9] = 5% cellobiose ester in Polydecene
[10] = 10% cellobiose ester in Fluid AP
[11] = 10% cellobiose ester in Mineral oil
[12] = 10% cellobiose ester in Polydecene
[13] = 60:40 hydrogenated polydecene:DC245 gelled with 9% REF2 and 1% of the specified cellobiose ester
[14] = 9% REF4 plus 1% of the named material

Compound | Clarity % T [1, 6] [%] | Solubility of structurant at 25° C. [2] | FDT [2] [°C] | gelling of DC556 ([3]; 5% cellobiose ester in DC556) | gelling of Fluid AP [3, 7] | gelling of ISA ([3]; 5% cellobiose ester in ISA) | gelling of Mineral oil [3, 8] | gelling of Polydecene [3, 9] | gelling of DC556 ([3]; 10% cellobiose ester in DC556) | gelling of Fluid AP [3, 10] | gelling of ISA ([3]; 10% cellobiose ester in ISA) | gelling of Mineral oil [3, 11] | gelling of Polydecene [3, 12] | Clarity Visual (assessment score) [4, 6] | Clarity Visual (appearance) [4, 13] | gelling of IPM ([3]; 5% cellobiose ester in IPM) | gelling of IPM ([3]; 10% cellobiose ester in IPM) | other results
CCCCCCCCC(=O)OCC1OC(OC2C(COC(=O)CCCCCCCC)OC(OC(C)=O)C(OC(=O)CCCCCCCC)C2OC(=O)CCCCCCCC)C(OC(=O)CCCCCCCC)C(OC(=O)CCCCCCCC)C1OC(=O)CCCCCCCC (mixture of isomers) [Ex 1.5] | 49 | Less soluble. No | 50 | g22 | gel | g22 | g22 | gel | gel | gel | gel | gel | gel | > 8 | transparent |  |  | 
CCCCCCCCC(=O)OCC1OC(OC2C(COC(=O)CCCCCCCC)OC(OC(C)=O)C(OC(=O)CCCCCCCC)C2OC(=O)CCCCCCCC)C(OC(=O)CCCCCCCC)C(OC(=O)CCCCCCCC)C1OC(=O)CCCCCCCC (mixture of isomers) [Ex 1.6] | 49 | Less soluble. No | 70 | sg22 | sg | sg | sg | gel | gel | gel | gel | gel | gel | > 8 | transparent |  |  | 
CCCCCCCCCC(=O)OCC1OC(OC2C(COC(=O)CCCCCCCCC)OC(OC(=O)c3ccc4ccccc4c3)C(OC(=O)CCCCCCCCC)C2OC(=O)CCCCCCCCC)C(OC(=O)CCCCCCCCC)C(OC(=O)CCCCCCCCC)C1OC(=O)CCCCCCCCC (mixture of isomers) [Ex 2.7] |  |  |  | gel | gel | gel | gel | gel | gel | gel | gel | gel | gel |  |  |  |  | Clarity % T [1, 14]: 8.7%; Clarity Visual (appearance) ([4]; 9% REF4 plus 1% of the named material in 60:40 hydrogenated polydecene:DC245): translucent; Clarity Visual (assessment score) [4, 14]: 0
cellobiose heptanonanoate monocyclohexanoate [Ex 1.10] | 42 |  |  | gel | gel | g22 | gel | gel | gel | gel | gel | gel | gel | slight haze 6 | transparent/ | sol | g4 | Observations ([5]; 9% of REF1 and 1% of additional structurant, after 12 days at 37° C.): No crystal growth after 12 days at 37 °C; Observation ([5]; 10% structurant in 60:40 Panalene L14E:DC245, after 17 days at 37° C.): No crystals after 17 days.; Observation ([5]; REF2 to which the CHME structurant was added, after 11 days at 37° C.): Some needle crystals on surface after 11; Observation ([5]; REF2 to which the CHME structurant was added, after 12 days at 37° C.): Some needle crystals in gel bulk after 12; Visual ([4]; gel in 60:40 w/w Silkflo 364:DC245, score scale −12 to 8): >8
CCCCCCCCC(=O)OCC1OC(OC2C(COC(=O)CCCCCCCC)OC(OC(=O)c3ccc4ccccc4c3)C(OC(=O)CCCCCCCC)C2OC(=O)CCCCCCCC)C(OC(=O)CCCCCCCC)C(OC(=O)CCCCCCCC)C1OC(=O)CCCCCCCC (mixture of isomers) [Ex 1.4] | 38 |  |  | gel | gel | g22 | g22 | g22 | gel | gel | g22 | g22 | gel | slight haze >8 | transparent/ | sol | sol | gelling of Finsolv TN ([3]; 5% cellobiose ester in Finsolv TN): sol; gelling of Finsolv TN ([3]; 10% cellobiose ester in Finsolv TN): sol

Source: US6974804B2, “Esters” (Unilever Home & Personal Care USA, division of Conopco, Inc., priority 2000, dated 2005)
